Experimental data taken from patent US11851391B2, “Antifungal compounds and methods of forming the same” (University of Kentucky Research Foundation, priority 2018, dated 2023).
Values after ≈ are worked out from the molar mass of the structure shown. Read-outs that look alike come from different tables or passages of the source.

Legend:
Assay type in all cases: cell-based
[1] = tested on: Aspergillus flavus ATCC MYA-3631 (strain K); test: MIC determination against filamentous fungi (CLSI M38-A2); details: MIC-0, 48 h at 35° C.
Method in brief: (§1)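 Broth microdilution followed CLSI M38-A2 in RPMI 1640 buffered to pH 7.0 with 0.165 M MOPS. Spores were harvested from PDA cultures, counted by hemocytometer and added at 5×10^5 CFU/mL final, then incubated 48 h at 35° C. MIC was taken as complete growth inhibition versus growth control (MIC-0), run in triplicate.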

[2] = tested on: Aspergillus terreus ATCC MYA-3633 (strain M); test: as above; details: MIC-0, 48 h at 35° C.
Method in brief: as §1

[3] = tested on: Aspergillus nidulans ATCC 38163 (strain L); test: as above; details: MIC-0, 48 h at 35° C.
Method in brief: as §1

[4] = tested on: Candida albicans ATCC 10231(R) (strain A); test: MIC determination, in vitro antifungal assay (CLSI M27-A3); details: MIC-0 (no visible growth), 48 h at 35° C.
Method in brief: (§2)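 Yeast from a single colony is grown overnight in YPD at 35° C with shaking, adjusted to OD600 0.12, then diluted into RPMI 1640 to 2-4×10^3 CFU/mL. Compounds are tested by modified CLSI M27-A3 microdilution, DMSO <1.25%, and MIC is scored as complete inhibition.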

[5] = tested on: Candida parapsilosis ATCC 22019 (strain J); test: as above; details: strain J, MIC-0, 48 h at 35° C.
Method in brief: as §2

[6] = tested on: human lung carcinoma cell line A549; test: In vitro cytotoxicity assay (resazurin); details: 24 h
Protocol: The human bronchus normal cell line BEAS-2B (ATCC CRL-9609) and the human lung carcinoma cell line A549 (ATCC CRL-185) were kind gifts from the laboratories of Dr. Matthew S. Gentry (University of Kentucky, Lexington, KY, USA) and Dr. David K. Orren (University of Kentucky, Lexington, KY, USA). The mammalian cells were grown in Dulbecco's Modified Eagle's Medium (DMEM) (from ATCC) with 10% fetal bovine serum (FBS) (from ATCC) and 1% Pen/Strep (from ATCC). Cell lines were cultured at 37° C. with 5% CO2 and passaged by trypsinization with 0.05% trypsin:0.53 mM EDTA (from ATCC). Cell confluency was determined by using a Nikon Eclipse TS100 microscope (Minato, Tokyo, Japan).
Cytotoxicity assays were performed as previously described with slight modifications. A549 and BEAS-2B cells were first thawed from stocks and grown. The confluent cells were transferred to a 96-well microtiter plates at density of 3000 cells/well. The 96-well plates were incubated at 37° C. with 5% CO2 overnight. […] The stock solutions were serially diluted in 1.5 mL eppendorf tubes to achieve concentrations of 31-0.12 mg/mL. 1 μL of these 1000× compound stock solutions was then added to 999 μL of DMEM medium in 1.5 mL eppendorf tubes to obtain final concentrations of 31-0.12 μg/mL. […] The 96-well plates were further incubated for 24 h at 37° C. with 5% CO2. To evaluate cell survival, each well was treated with 10 μL (25 mg/L) of resazurin sodium salt (Sigma-Aldrich, St. Louis, MO, USA) and incubated for another 6 h. Metabolically active cells can convert resazurin to the highly fluorescent dye, resorufin, and be detected at A560 excitation and A590 emission using a SpectraMax M5 plate reader (Molecular Devices, San Jose, CA, USA). […] The percentage survival rates were calculated by using the following formula: % cell survival=[(fluorescence of sample)−(fluorescence of background)]×100/[(fluorescence of negative control)−(fluorescence of background)]. Experiments were done in duplicate.

[7] = Aspergillus flavus, 48 h, read-out: MIC
[8] = Aspergillus terreus, 48 h, read-out: MIC
[9] = Aspergillus nidulans, ATCC38163, 48 h, read-out: MIC
[10] = Candida albicans, ATCC10231, 48 h, read-out: MIC
[11] = Lodderomyces parapsilosis, ATCC22019, 48 h, read-out: MIC
[12] = A549 (printed A459) at 31 μg/mL

SMILES | MIC [1, 7] [µg/mL] | MIC [1] [µg/mL] | MIC [2, 8] [µg/mL] | MIC [2] [µg/mL] | MIC [3, 9] [µg/mL] | MIC [3] [µg/mL] | MIC [4, 10] [µg/mL] | MIC [4] [µg/mL] | MIC [5, 11] [µg/mL] | toxicity (in words) ([6]; A549 at 15.5 μg/mL) | toxicity (in words) [6, 12] | MIC [5] [µg/mL]
C(=N\Nc1ccccc1)/c1ccc(-c2cccc(/C=N/Nc3ccccc3)c2)cc1 [Compound 7a] | 1.95 to 3.9 (≈ 4.99 to 9.99 µM) | 3.9 (≈ 9.99 µM) | 7.8 to 15.6 (≈ 20 to 39.9 µM) | 15.6 (≈ 39.9 µM) | 1.95 to 3.9 (≈ 4.99 to 9.99 µM) | 1.95 (≈ 4.99 µM) | 1.95 to 3.9 (≈ 4.99 to 9.99 µM) | 1.95 (≈ 4.99 µM) | > 31.3 |  |  | 
Fc1cccc(N/N=C/c2ccc(-c3cccc(/C=N/Nc4cccc(F)c4)c3)cc2)c1 [Compound 12a] | 1.95 to 3.9 (≈ 4.57 to 9.14 µM) | 3.9 (≈ 9.14 µM) | > 31.3 |  | 7.8 to 15.6 (≈ 18.3 to 36.6 µM) | 7.8 (≈ 18.3 µM) | 1.95 to 3.9 (≈ 4.57 to 9.14 µM) | 1.95 (≈ 4.57 µM) | 31.3 (≈ 73.4 µM) | no toxicity |  | 
COc1ccc(N/N=C/c2ccc(-c3cccc(/C=N/Nc4ccc(OC)cc4)c3)cc2)cc1 [Compound 15a] | > 31.3 |  | > 31.3 |  | 31.3 (≈ 69.5 µM) |  | 1.95 to 3.9 (≈ 4.33 to 8.66 µM) | 1.95 (≈ 4.33 µM) | > 31.3 |  | generally non-toxic | 
COc1ccc(N/N=C/c2ccc(-c3ccc(/C=N/Nc4ccc(OC)cc4)cc3)cc2)cc1 [Compound 15b] | > 31.3 |  | > 31.3 |  | 7.8 to 15.6 (≈ 17.3 to 34.6 µM) | 7.8 (≈ 17.3 µM) | 7.8 to 15.6 (≈ 17.3 to 34.6 µM) | 7.8 (≈ 17.3 µM) | 7.8 to 15.6 (≈ 17.3 to 34.6 µM) |  | generally non-toxic | 15.6 (≈ 34.6 µM)
Fc1ccc(N/N=C/c2ccc(-c3cccc(/C=N/Nc4ccc(F)cc4)c3)cc2)cc1 [Compound 17a] | 15.6 (≈ 36.6 µM) |  | > 31.3 |  | 1.95 to 3.9 (≈ 4.57 to 9.14 µM) | 3.9 (≈ 9.14 µM) | 1.95 to 3.9 (≈ 4.57 to 9.14 µM) | 1.59 to 3.9 | 31.3 (≈ 73.4 µM) |  | generally non-toxic | 
Fc1ccc(N/N=C/c2ccc(-c3ccc(/C=N/Nc4ccc(F)cc4)cc3)cc2)cc1 [Compound 17b] | 7.8 to 15.6 (≈ 18.3 to 36.6 µM) | 7.8 (≈ 18.3 µM) | > 31.3 |  | 7.8 to 15.6 (≈ 18.3 to 36.6 µM) | 7.8 (≈ 18.3 µM) | 7.8 to 15.6 (≈ 18.3 to 36.6 µM) | 7.8 (≈ 18.3 µM) | 31.3 (≈ 73.4 µM) |  |  | 
C/C(=N\Nc1ccc(F)cc1)c1ccc(-c2ccc(/C(C)=N/Nc3ccc(F)cc3)cc2)cc1 [Compound 17c, 4,4′-bis((E)-1-(2-(4-fluorophenyl)hydrazono)ethyl)-1,1′-biphenyl] | > 31.3 |  | > 31.3 |  | 7.8 (≈ 17.2 µM) |  | 1.95 to 3.9 (≈ 4.29 to 8.58 µM) | 1.95 (≈ 4.29 µM) | 15.6 (≈ 34.3 µM) | no toxicity |  | 
Fc1ccc(N/N=C/c2ccc(-c3cccc(/C=N/Nc4ccc(F)cc4F)c3)cc2)c(F)c1 [Compound 20a] | 7.8 (≈ 16.9 µM) |  | 31.3 (≈ 67.7 µM) |  | 7.8 (≈ 16.9 µM) |  | 1.95 to 3.9 (≈ 4.22 to 8.43 µM) | 3.9 (≈ 8.43 µM) | 31.3 (≈ 67.7 µM) | no toxicity |  | 
